Experimental data taken from patent EP1408048A1, “Vaccines of enhanced immunogenicity, and methods for preparing such vaccines” (INSTITUT NATIONAL DE LA SANTE ET DE LA RECHERCHE MEDICALE …, priority 2002, dated 2004).

Tested on: TAP
Test: TAP competitive binding assay with radio-labeled reporter peptide R9L
Conditions: result in words; TAP affinity = inverse of the IC50; reporter peptide R9L at 300 nM
Procedure: TAP affinities were determined in a competitive binding assay. IC50 values for competitor test peptides were normalized with respect to the IC50 of reporter peptide […] (SEQ ID N° 2).
Determination of HLA-A2 and TAP affinities. […] Results are expressed as inverse normalized IC50 (1/IC50 of test peptide/ IC50 of cold reporter peptide).

RRYNASTEL [R9L]
TAP affinity: high
